{"source": "patent US20260365655A1", "about": "“NEW USE OF JANUS KINASE (JAK)-DEGRADING AGENT BASED ON PROTEOLYSIS TARGETING CHIMERA (PROTAC)” (SHANGHAI SKIN DISEASE HOSPITAL, priority 2022, published 2026)", "key": {"[1]": {"test_system": "mouse ear eczema model (ear thickness)", "test": "Mouse ear eczema model: ear thickness", "type": "in vivo, BALB/c mice", "settings": "for Ear thickness, mean value: group mean; for Ear thickness: individual mice, two ears; for Ear thickness difference among Compound 1-, Compound 2-treating and positive drug groups / Ear thickness of model group versus treated groups: after the modeling; for Ear thickness of model group versus treated groups: result is for model group relative to the treated groups", "excerpt": "(§1) (1) Preparation method of a JAK-PROTAC cream: the same as in Example 1.\n(§2) (2) Positive therapeutic drug: a 0.050% dexamethasone acetate cream (manufacturer: Shanghai Skin Disease Hospital).\n(§3) (3) Blank matrix: a matrix component produced after the active ingredient JAK-PROTAC was removed from the cream.\n(§4) (4) Molding agent: solution of calcipotriol in ethanol (manufacturer: MACKLIN).\n(§5) (1) The mice were randomly divided into a blank control group (6 mice) (Control), a model group (6 mice) (Model), a positive drug group (6 mice) (Positive), a Compound 1-treating group (0.15% JAK-PROTAC cream 1 for external use) (6 mice) (Treat 1), and a Compound 2-treating group (0.15% JAK-PROTAC cream 2 for external use) (6 mice) (Treat 2).\n(§6) (2) Molding was conducted in the following manner:\n(§7) A. On day 0 to day 7 of the modeling: At 9 a.m., the blank control group was administered with the cream matrix, the model group was administered with the molding agent, the positive group was administered with the molding agent, the Compound 1-treating group was administered with the molding agent, and the Compound 2-treating group was administered with the molding agent. At 5 p.m., the blank control group was not treated, the model group was administered with the cream matrix, the positive group was administered with the dexamethasone acetate cream, the Compound 1-treating group was administered with the JAK-PROTAC cream 1, and the Compound 2-treating group was administered with the JAK-PROTAC cream 2.\nas §7, with “B.” for “A.”, “8” for “0”, “10” for “7”, “modeling, at” for “modeling: At”, “not treated,” for “administered with the molding agent,”, “not treated.” for “administered with the molding agent.”\n(§8) C. On day 11 of the modeling: At 9 a.m., the blank control group was administered with the cream matrix, the model group was not treated, the positive group was not treated, the Compound 1-treating group was not treated, and the Compound 2-treating group was not treated. At 1 p.m., the mice were sacrificed through cervical dislocation, and the spleen and two ears of each mouse were collected.\n(2) A body weight and thicknesses of two ears of each mouse were recorded daily.\n(§9) The data of the present disclosure was processed with the Excel and GraphPad software. The experimental data was tested by one-way ANOVA. The post-hoc multiple comparison was conducted with the least significant difference (LSD). P<0.05 indicated a significant difference."}, "[2]": {"test_system": "serum thymic stromal lymphopoietin (TSLP)", "test": "Mouse ear eczema model: serum TSLP by enzyme-linked immunosorbent assay", "type": "in vivo, BALB/c mice", "settings": "for Serum TSLP content versus blank group: compared with the blank group; for Serum TSLP content versus model group: compared with the model group; for Reduction level of serum TSLP content versus positive group: compared with the positive group (dexamethasone acetate cream)", "excerpt": "as §1, §2, §3, §4, §5, §6, §7\nas §7, with “B.” for “A.”, “8” for “0”, “10” for “7”, “modeling, at” for “modeling: At”, “not treated,” for “administered with the molding agent,”, “not treated.” for “administered with the molding agent.”\nas §8\n(4) The TSLP content in serum was detected by enzyme-linked immunosorbent assay.\nas §9"}, "RAW 264.7 cells": {"test_system": "RAW 264.7 cells", "test": "NO content assay in LPS+IFN-γ induced RAW 264.7 macrophage inflammatory model", "type": "cell-based", "settings": "for NO level versus LPS+IFN-γ model group: 0.05, 0.1, 0.2 g/mL (so in the source), 0.4 and 0.8 μg/mL, 24 h, LPS 0.5 μg/mL + IFN-γ 2 ng/mL; for Inhibition of inflammation: concentration range of 0.05 μg/mL to 0.8 μg/mL; for Concentration of optimal anti-inflammatory effect: tested 0.05 μg/mL to 0.8 μg/mL", "experimental": "(1) Reagents: compound 1: a compound shown by Compound 1 in formula (I); compound 2: a compound shown by Compound 2 in Formula (I); DMEM high-glucose medium: Wuhan Pricella Biotechnology Co., Ltd.; South American FBS and trypsin: Gibco, USA; penicillin-streptomycin: Hyclone, USA; and nitric oxide (NO) assay kit: Beyotime.\n(2) Instruments: CO2 incubator: HERA cell 240; and microplate reader: Thermo Fisher Scientific, USA.\nInduction of an RAW 264.7 macrophage inflammatory model with lipopolysaccharide (LPS) and interferon-gamma (IFN-γ): RAW 264.7 cells in a logarithmic growth phase were taken and inoculated in a 96-well cell culture plate at 20×10^3 cells/well, and cultured for 24 h until the cells were adherent. Ablank control group of 0 μg/mL, a model group of 0.5 μg/mL LPS+2 ng/mL IFN-γ, and experimental groups of compounds 1 and 2 at concentrations of 0.05 μg/mL, 0.1 μg/mL, 0.2 μg/mL, 0.4 μg/mL, and 0.8 μg/mL were set. Three replicate wells were set for each group. In the blank control group, cells were incubated with serum-free DMEM. In the LPS+IFN-γ model group, cells were incubated with serum-free DMEM. After 24 h of incubation, morphological changes of cells were observed, and a concentration of NO was determined according to instructions of the NO assay kit.\nThe data of the present disclosure was processed with the Excel and Graphpad software. The experimental data were tested by one-way ANOVA. The post-hoc multiple comparison was conducted with the LSD. P<0.05 indicated a significant difference."}, "[3]": {"settings": "Day0, cream for external use (JAK-PROTAC 0.15%, dexamethasone acetate 0.050%)"}, "[4]": {"settings": "Day0 of modeling, cream for external use (JAK-PROTAC 0.15%, dexamethasone acetate 0.050%)"}}, "note": "Several values for one entry are separate records, joined by “and”; a condition that tells them apart may be missing. Identical values can stand only once.", "data": [{"smiles": "N#CC[C@H](C1CCCC1)n1cc(-c2nc(Nc3ccc(C(=O)NCCCCNc4cccc5c4C(=O)N(C4CCC(=O)NC4=O)C5=O)cc3)nc3[nH]ccc23)cn1", "note": "(stereo partly shown) [Compound 1]", "values": [{"measurement": "Ear thickness, mean value", "setting": "[1]; [3]", "value": 0.24, "unit": "mm"}, {"measurement": "Ear thickness", "setting": "[1]; [4]", "value": "0.23 mm (2×) and 0.24 mm (3×) and 0.26 mm and 0.25 mm (2×)"}, {"measurement": "Ear thickness, mean value", "setting": "[1]; Day 1", "value": 0.27, "unit": "mm"}, {"measurement": "Ear thickness", "setting": "[1]; Day 1", "value": "0.26 mm (5×) and 0.29 mm and 0.28 mm and 0.27 mm"}, {"measurement": "Ear thickness, mean value", "setting": "[1]; Day2", "value": 0.28, "unit": "mm"}, {"measurement": "Ear thickness", "setting": "[1]; Day2", "value": "0.30 mm (3×) and 0.27 mm (3×) and 0.28 mm and 0.24 mm"}, {"measurement": "Ear thickness, mean value", "setting": "[1]; Day3", "value": 0.28, "unit": "mm"}, {"measurement": "Ear thickness", "setting": "[1]; Day3", "value": "0.30 mm and 0.31 mm and 0.26 mm and 0.28 mm and 0.27 mm (2×) and 0.29 mm and 0.24 mm"}, {"measurement": "Ear thickness, mean value", "setting": "[1]; Day4", "value": 0.28, "unit": "mm"}, {"measurement": "Ear thickness", "setting": "[1]; Day4", "value": "0.27 mm (2×) and 0.33 mm and 0.31 mm and 0.30 mm and 0.25 mm (2×) and 0.28 mm"}, {"measurement": "Ear thickness, mean value", "setting": "[1]; Day5", "value": 0.29, "unit": "mm"}, {"measurement": "Ear thickness", "setting": "[1]; Day5", "value": "0.32 mm (3×) and 0.29 mm and 0.28 mm (2×) and 0.30 mm and 0.24 mm"}, {"measurement": "Ear thickness, mean value", "setting": "[1]; Day6", "value": 0.32, "unit": "mm"}, {"measurement": "Ear thickness", "setting": "[1]; Day6", "value": "0.34 mm and 0.35 mm (2×) and 0.36 mm and 0.31 mm and 0.30 mm and 0.25 mm and 0.33 mm"}, {"measurement": "Ear thickness, mean value", "setting": "[1]; Day7", "value": 0.33, "unit": "mm"}, {"measurement": "Ear thickness", "setting": "[1]; Day7", "value": "0.33 mm (2×) and 0.32 mm and 0.37 mm and 0.35 mm and 0.36 mm and 0.26 mm and 0.34 mm"}, {"measurement": "Ear thickness, mean value", "setting": "[1]; Day8", "value": 0.32, "unit": "mm"}, {"measurement": "Ear thickness", "setting": "[1]; Day8", "value": "0.30 mm and 0.33 mm and 0.32 mm (2×) and 0.35 mm and 0.37 mm and 0.24 mm and 0.34 mm"}, {"measurement": "Ear thickness difference among Compound 1-, Compound 2-treating and positive drug groups", "setting": "[1]", "value": "no significant difference among the Compound 1- and Compound 2-treating groups and the positive drug group (P>0.05)"}, {"measurement": "Ear thickness of model group versus treated groups", "setting": "[1]", "value": "significantly larger than ear thicknesses of the Compound 1- and Compound 2-treating groups, the positive drug group, and the blank control group (P<0.05)"}, {"measurement": "Serum TSLP content versus blank group", "setting": "[2]", "value": "increased compared with the blank group (P<0.01)"}, {"measurement": "Serum TSLP content versus model group", "setting": "[2]", "value": "significantly reduced compared with the model group (P<0.01)"}, {"measurement": "Reduction level of serum TSLP content versus positive group", "setting": "[2]", "value": "greater than a reduction level of a TSLP content in the positive group (P<0.01)"}, {"measurement": "NO level versus LPS+IFN-γ model group", "setting": "RAW 264.7 cells", "value": "reduced"}, {"measurement": "Inhibition of inflammation", "setting": "RAW 264.7 cells", "value": "could effectively inhibit the inflammation"}, {"measurement": "Concentration of optimal anti-inflammatory effect", "setting": "RAW 264.7 cells", "value": 0.4, "unit": "µg/mL"}]}, {"smiles": "CCS(=O)(=O)N1CC(CC#N)(n2cc(-c3nc(Nc4ccc(C(=O)NCCCCNc5cccc6c5C(=O)N(C5CCC(=O)NC5=O)C6=O)cc4)nc4[nH]ccc34)cn2)C1", "note": "(stereo not shown) [Compound 2]", "values": [{"measurement": "Ear thickness, mean value", "setting": "[1]; [3]", "value": 0.22, "unit": "mm"}, {"measurement": "Ear thickness", "setting": "[1]; [4]", "value": "0.22 mm (3×) and 0.24 mm (2×) and 0.21 mm (3×)"}, {"measurement": "Ear thickness, mean value", "setting": "[1]; Day 1", "value": 0.26, "unit": "mm"}, {"measurement": "Ear thickness", "setting": "[1]; Day 1", "value": "0.28 mm and 0.29 mm and 0.24 mm (2×) and 0.25 mm (3×) and 0.26 mm"}, {"measurement": "Ear thickness, mean value", "setting": "[1]; Day2", "value": 0.25, "unit": "mm"}, {"measurement": "Ear thickness", "setting": "[1]; Day2", "value": "0.23 mm (3×) and 0.29 mm and 0.21 mm and 0.26 mm (2×) and 0.25 mm"}, {"measurement": "Ear thickness, mean value", "setting": "[1]; Day3", "value": 0.26, "unit": "mm"}, {"measurement": "Ear thickness", "setting": "[1]; Day3", "value": "0.26 mm (5×) and 0.27 mm and 0.24 mm and 0.25 mm"}, {"measurement": "Ear thickness, mean value", "setting": "[1]; Day4", "value": 0.27, "unit": "mm"}, {"measurement": "Ear thickness", "setting": "[1]; Day4", "value": "0.29 mm and 0.27 mm and 0.26 mm (2×) and 0.28 mm (2×) and 0.25 mm and 0.24 mm"}, {"measurement": "Ear thickness, mean value", "setting": "[1]; Day5", "value": 0.29, "unit": "mm"}, {"measurement": "Ear thickness", "setting": "[1]; Day5", "value": "0.29 mm (3×) and 0.30 mm (2×) and 0.28 mm and 0.31 mm and 0.26 mm"}, {"measurement": "Ear thickness, mean value", "setting": "[1]; Day6", "value": 0.32, "unit": "mm"}, {"measurement": "Ear thickness", "setting": "[1]; Day6", "value": "0.32 mm (2×) and 0.33 mm (2×) and 0.31 mm (2×) and 0.30 mm (2×)"}, {"measurement": "Ear thickness, mean value", "setting": "[1]; Day7", "value": 0.35, "unit": "mm"}, {"measurement": "Ear thickness", "setting": "[1]; Day7", "value": "0.34 mm (2×) and 0.36 mm (5×) and 0.35 mm"}, {"measurement": "Ear thickness, mean value", "setting": "[1]; Day8", "value": 0.35, "unit": "mm"}, {"measurement": "Ear thickness", "setting": "[1]; Day8", "value": "0.34 mm (4×) and 0.36 mm (2×) and 0.39 mm and 0.33 mm"}, {"measurement": "Ear thickness difference among Compound 1-, Compound 2-treating and positive drug groups", "setting": "[1]", "value": "no significant difference among the Compound 1- and Compound 2-treating groups and the positive drug group (P>0.05)"}, {"measurement": "Ear thickness of model group versus treated groups", "setting": "[1]", "value": "significantly larger than ear thicknesses of the Compound 1- and Compound 2-treating groups, the positive drug group, and the blank control group (P<0.05)"}, {"measurement": "Serum TSLP content versus blank group", "setting": "[2]", "value": "increased compared with the blank group (P<0.01)"}, {"measurement": "Serum TSLP content versus model group", "setting": "[2]", "value": "significantly reduced compared with the model group (P<0.01)"}, {"measurement": "Reduction level of serum TSLP content versus positive group", "setting": "[2]", "value": "greater than a reduction level of a TSLP content in the positive group (P<0.01)"}, {"measurement": "NO level versus LPS+IFN-γ model group", "setting": "RAW 264.7 cells", "value": "reduced"}, {"measurement": "Inhibition of inflammation", "setting": "RAW 264.7 cells", "value": "could effectively inhibit the inflammation"}, {"measurement": "Concentration of optimal anti-inflammatory effect", "setting": "RAW 264.7 cells", "value": 0.4, "unit": "µg/mL"}]}]}
